Tests used:
[1] = test system: Rattus norvegicus; conditions: for LD50: acute, mortality
[2] = test system: Anas platyrhynchos; conditions: oral, mortality
[3] = test system: Colinus virginianus

SMILES | LD50 ([1]; oral) [mg/kg] | LD50 ([2]; acute, unspecified) [mg/kg] | LC50 ([2]; short-term, feed) [mg/kg-day] | LC50 ([3]; acute, oral, diet, mortality) [mg/kg-day] | LD50 ([3]; acute, oral, mortality) [mg/kg] | NOEC ([3]; reproduction developmental, M) [mg/kg-day] | NOAEL ([1]; chronic, duration: 2 years, organ weight) [mg/kg-day] | NOAEL ([1]; chronic, no effects) [mg/kg-day] | NOAEL ([1]; subchronic, duration: 90 days, oral, histopathology: nonneoplastic) [mg/kg-day]
O=C(O)c1ccccc1C(F)(F)F [2-(Trifluoromethyl)benzoic acid] | > 2000 | – | – | – | – | – | – | – | –
COCCOC(=O)C(C#N)(C(=O)c1ccccc1C(F)(F)F)c1ccc(C(C)(C)C)cc1 (stereo not given) [Cyflumetofen] | > 2000 | > 2250 | > 2380 | > 1410 | > 2000 | ≥ 84.4 | 16.5 | 34.6 | 16.5

— EPA's ToxValDB 9.5 (doi:10.2903/j.efsa.2012.2504)
